Data from patent US11123357B2, “Methods and compositions for treating oral mucositis” (Lakewood Amedex, Inc., priority 2018, dated 2021).

Legend:
[1] = test system: oral mucositis induced by acute radiation; assay: Oral mucositis induced by acute radiation in hamsters (blinded mucositis scoring); type: in vivo, Syrian Golden Hamsters; set-up: key to peak mean mucositis score: 0 = normal, 5 = severe ulceration (photographic scale); conditions: for % Days ≥ 3 / Days < 3 (animal days with mucositis score <3) / Days ≥ 3 (animal days with mucositis score ≥3): through Day 28
Text: The objective of the study was to test the efficacy of Nu-8 in the treatment of oral mucositis induced by acute radiation in hamsters.
Normal male Syrian Golden Hamsters (Charles River Laboratories), aged 5 to 6 weeks, with average body weight (±SD) of 92.83±3.36 g at study commencement, were used. Animals were individually numbered using an ear punch and housed in small groups. Animals were acclimatized prior to study commencement. During this period, the animals were observed daily in order to reject animals that were in poor condition.
Animals were randomly and prospectively divided into three (3) groups of eight (8) animals each prior to irradiation. Each animal was identified by an ear punch corresponding to an individual number. A cage card was used to identify each cage or label marked with the study number (LKW-01), treatment group number and animal numbers.
Formulation: • 1. Make fresh daily. Weigh out necessary amount of compound and dissolve in normal saline. Titrate with citric acid to bring pH of solution down to approximate 3.5 (pH range 3 to 4). • 2. The vehicle administered to animals in Group 1 was also titrated with citric acid to a pH of ˜3.5 (pH range 3 to 4).
Mucositis was induced using a single of radiation (40 Gy) administered on Day 0. Radiation was generated with a 160-kilovolt potential (18.75-ma) source at a focal distance of 10 cm, hardened with a 3.0 mm Al filtration system. Irradiation targeted the left buccal pouch mucosa at a rate of 2-2.5 Gy/minute. Prior to irradiation, animals were anesthetized with an intraperitoneal injection of ketamine (160 mg/kg) and xylazine (8 mg/kg). The left buccal pouch was everted, fixed and isolated using a lead shield.
Starting on Day 6 and continuing every second day thereafter (Days 8, 10, 12, 14, 16, 18, 20, 22, 24, 26, 28) each animal was photographed and evaluated for mucositis scoring. For the evaluation of mucositis, the animals were anesthetized with an inhalation anesthetic and the left pouch everted. Mucositis was scored visually by comparison to a validated photographic scale (FIGS. 1A-1F), ranging from 0 for normal, to 5 for severe ulceration (clinical scoring). In descriptive terms, this scale is defined as follows: […]
A score of 1-2 is considered to represent a mild stage of the disease, whereas a score of 3-5 is considered to indicate moderate to severe ulcerative mucositis. Following visual clinical scoring, a photograph was taken of each animal's mucosa using a standardized technique. At the conclusion of the experiment, the photographs were randomly numbered and scored by two independent, trained observers who graded the images in blinded fashion using the above-described scale (blinded scoring). For each photograph, the actual blinded score was based on the average of the 2 observers' scores. Only the scores from the blinded, photographic evaluation were reported and used for statistical analyses. Hamsters reaching a mucositis severity score of 4 or higher received buprenorphine (0.5 mg/kg) SC twice a day for 48 hours or until score dropped below 4. Statistical Analyses
Using the blinded photographs, statistical differences between treatment groups were determined using Mann-Whitney Rank Sum test and chi-square analysis with a critical value of 0.05. It was anticipated that up to 10% animal death may occur, primarily as a result of the administration of anesthetics. However, the number of animals expected to remain alive at Day 28 (6 per treatment group) was considered acceptable for statistical evaluation.
The difference in the number of days hamsters in each group have severe mucositis (score ≥3) was analyzed. On each day the animals were scored (evaluation day), the number of animals with a blinded mucositis score of ≥3 in each treatment group was compared to the Vehicle control group. Differences were analyzed on a daily as well as a cumulative basis. […]

[2] = Mean daily percent body weight change in irradiated hamsters; type: in vivo, Syrian Golden Hamsters; conditions: Group 3 (10% Nu-8, TID topical); p<0.05
Text: The mean daily percent body weight change data are shown in FIG. 2 for animals in all groups. Animals steadily gained weight throughout the duration of the study.

CCCCOP(=O)(O)OC[C@H]1O[C@@H](n2ccc(N)nc2=O)C[C@@H]1OP(=O)(O)OCCCC [Nu-8, ((2R,3S,5R)-5-(4-amino-2-oxopyrimidin-1(2H)-yl)-3-((butoxyoxidophosphor-yl)oxy)tetrahydrofuran-2-yl)methyl butyl phosphate]
days of significant improvement in mucositis scores vs. Vehicle (Mann-Whitney rank sum) ([1]; 1% Nu-8 (Group 2)): one day of significant improvement
Chi Sq vs. Vehicle (animal days with score ≥3) ([1]; 1% Nu-8, TID topical): 2.094
Percent Ulceration by Day (Score ≥ 3) ([1]; 1% Nu-8, TID topical, Day 6): 0.0%
Percent Ulceration by Day (Score ≥ 3) ([1]; 1% Nu-8, TID topical, Day 8): 0.0%
Percent Ulceration by Day (Score ≥ 3) ([1]; 1% Nu-8, TID topical, Day 10): 0.0%
Percent Ulceration by Day (Score ≥ 3) ([1]; 1% Nu-8, TID topical, Day 12): 0.0%
Percent Ulceration by Day (Score ≥ 3) ([1]; 1% Nu-8, TID topical, Day 14): 12.5%
Percent Ulceration by Day (Score ≥ 3) ([1]; 1% Nu-8, TID topical, Day 16): 50.0%
Percent Ulceration by Day (Score ≥ 3) ([1]; 1% Nu-8, TID topical, Day 18): 87.5%
Percent Ulceration by Day (Score ≥ 3) ([1]; 1% Nu-8, TID topical, Day 20): 87.5%
Percent Ulceration by Day (Score ≥ 3) ([1]; 1% Nu-8, TID topical, Day 22): 87.5%
Percent Ulceration by Day (Score ≥ 3) ([1]; 1% Nu-8, TID topical, Day 24): 87.5%
Percent Ulceration by Day (Score ≥ 3) ([1]; 1% Nu-8, TID topical, Day 26): 50.0%
Percent Ulceration by Day (Score ≥ 3) ([1]; 1% Nu-8, TID topical, Day 28): 25.0%
peak mean mucositis score ([1]; 1% Nu-8, TID topical, on Day 18): 2.88±0.13
% Days ≥ 3 ([1]; 1% Nu-8, TID topical): 40.63%
Days < 3 (animal days with mucositis score <3) ([1]; 1% Nu-8, TID topical): 57
Days ≥ 3 (animal days with mucositis score ≥3) ([1]; 1% Nu-8, TID topical): 39
days of significant improvement in mucositis scores vs. Vehicle (Mann-Whitney rank sum) ([1]; 10% Nu-8 (Group 3)): multiple days of significant improvement
Chi Sq vs. Vehicle (animal days with score ≥3) ([1]; 10% Nu-8, TID topical): 30.762
disease severity in comparison to vehicle-dosed animals ([1]; 10% Nu-8, TID topical): robust mitigation of disease severity
Percent Ulceration by Day (Score ≥ 3) ([1]; 10% Nu-8, TID topical, Day 6): 0.0%
Percent Ulceration by Day (Score ≥ 3) ([1]; 10% Nu-8, TID topical, Day 8): 0.0%
Percent Ulceration by Day (Score ≥ 3) ([1]; 10% Nu-8, TID topical, Day 10): 0.0%
Percent Ulceration by Day (Score ≥ 3) ([1]; 10% Nu-8, TID topical, Day 12): 0.0%
Percent Ulceration by Day (Score ≥ 3) ([1]; 10% Nu-8, TID topical, Day 14): 12.5%
Percent Ulceration by Day (Score ≥ 3) ([1]; 10% Nu-8, TID topical, Day 16): 25.0%
Percent Ulceration by Day (Score ≥ 3) ([1]; 10% Nu-8, TID topical, Day 18): 25.0%
Percent Ulceration by Day (Score ≥ 3) ([1]; 10% Nu-8, TID topical, Day 20): 25.0%
Percent Ulceration by Day (Score ≥ 3) ([1]; 10% Nu-8, TID topical, Day 22): 25.0%
Percent Ulceration by Day (Score ≥ 3) ([1]; 10% Nu-8, TID topical, Day 24): 12.5%
Percent Ulceration by Day (Score ≥ 3) ([1]; 10% Nu-8, TID topical, Day 26): 0.0%
Percent Ulceration by Day (Score ≥ 3) ([1]; 10% Nu-8, TID topical, Day 28): 0.0%
peak mean mucositis score ([1]; 10% Nu-8, TID topical, on Days 16 & 18): 2.29±0.18
% Days ≥ 3 ([1]; 10% Nu-8, TID topical): 11.90%
Days < 3 (animal days with mucositis score <3) ([1]; 10% Nu-8, TID topical): 74
Days ≥ 3 (animal days with mucositis score ≥3) ([1]; 10% Nu-8, TID topical): 10
percentage of days with a score of ≥3 in comparison to the Vehicle control group ([1]; 10% Nu-8, chi-square analysis): statistically different
percent ulceration in comparison to vehicle-dosed animal ([1]; both dose concentrations (1% and 10%), numerous days): percent ulceration that was lower in comparison to vehicle-dosed animal
disease onset (mean daily mucositis scores) ([1]; both groups treated with Nu-8 (1% and 10%), more so with 10%): modest attenuation of disease onset
mean percent weight change vs. vehicle group (AUC analysis, one-way ANOVA) [2]: statistically significant lower mean percent weight change
